Laboratory results from patent publication US4190646A, “Polypeptide compositions and methods” (Sloan-Kettering Institute for Cancer Research, priority 1979, dated 1980).
Where a SMILES comes first, the peptide text is derived from it.

Key:
[1] = test system: neuromuscular transmission; assay: neuromuscular transmission assessed by electromyography after injection; format: in vivo; conditions: mice, single injection of 10-100 μg peptide in saline intraperitoneally, 24 hours later
Procedure: To determine the effect of this peptide on neuromuscular transmission, mice were injected with 10-100 μg peptide in N saline intraperitoreally. Twenty-four hours later, neuromuscular transmission was assessed by electromyography as described in Lancet, Vol. 12, pps. 256-259, 1975.

[2] = test system: CR^+ B cells; assay: induction in vitro of CR+ B cell differentiation from CR- B cell precursors; format: cell-based, nu/nu mice; conditions: concentrations of 0.01 ng to 10 μg/ml
Procedure: To determine the activity and characteristics of the polypeptide, determinations were carried out on healthy 5-6 weeks nu/nu mice of both sexes, the mice being bred on a BALB/c background (thymocytes expressing Thy-1.2 surface antigen) and maintained under conventional conditions. For the antisera, anti Thy-1.2 sera were prepared in Thy-1 congenic mice.
For the induction in vitro of Thy-1^+ T cells or CR^+ B cell differentiation, the induction of thymocyte differentiation from prothymocytes in vitro was performed as described by Komuro and Boyse, (Lancet, 1, 740, 1973), using the acquisition of Thy-1.2 as a marker of T cell differentiation. The induction of CR^+ B cell differentiation from CR^- B cell precursors in vitro was performed under similar conditions using as the assay criterion, the capacity of CR^+ cells to bind sheep erythrocytes coated with subagglutinating quantities of rabbit antibody and nonlytic complement. Spleen cell populations from healthy nu/nu mice fractionated on discontinuous bovine serum albumin gradients were used as the source of both precursor types (Thy-1^- and CR^-) because they have few or no Thy-1^+ cells and low numbers of CR^+ cells.

[3] = activity compared with the basic pentapeptide of Example I, in Twomey solution; conditions: 1 μg/ml in 89% Twomey solution

| SMILES | neuromuscular transmission impairment by electromyography [1] | induction of differentiation of CR+ B cells [2] | maximum activity compared with the basic pentapeptide of Example I [3] | minimum activity compared with the basic pentapeptide of Example I [3] |
| --- | --- | --- | --- | --- |
| CC(C)[C@H](NC(=O)[C@H](CC(=O)O)NC(=O)[C@H](CCCCN)NC(=O)[C@@H](N)CCCNC(=N)N)C(=O)N[C@@H](Cc1ccc(O)cc1)C(=O)O [Example I, H2 N-ARG-LYS-ASP-VAL-TYR-COOH] (H-RKDVY-OH) | detectable neuromuscular impairment | did not induce |  |  |
| CC(C)[C@H](NC(=O)[C@H](CC(=O)O)NC(=O)[C@H](CCCCN)NC(=O)[C@@H](N)CCCNC(=N)N)C(=O)N[C@@H](Cc1ccc(O)cc1)C(N)=O [Example IV, H2 N-ARG-LYS-ASP-VAL-TYR-CONH2] (H-RKDVY-NH2) |  |  | 105% | 70% |
